# Tested on: patient with hepatic encephalopathy
# Assay: Case report: patient with cryptogenic cirrhosis and hepatic encephalopathy treated with lactulose, then PEG 3350/lactulose
# Type: in vivo, human
# Description: The patient is a person with cryptogenic cirrhosis, a type of cirrhosis which has unknown etiology. They have had extensive workups for chronic anemia in one of the major California hospitals and was placed on neomycin, Lasix, iron sulfate, lactulose, and Prevacid; they also were on a restricted protein diet to reduce ammonia production. They had intermittent episodes of hepatic encephalopathy during their hospitalization. The patient's hemoglobin slowly drops and they require transfusions periodically because of portal gastropathy. […] Although the therapeutic range is three to four bowel movements per day, it is very difficult for them to get to that range because of these effects.
# The patient has required several hospitalizations for lethargy, declines in hemoglobin, and hepatic encephalopathy. They have intermittent episodes of abdominal discomfort and mild irritation of various small bowel loops.
# The platelet count is in the range of 57,000. The lowest level of ammonia has been 30 micromoles/L and several levels have been 80 to 90 micromoles/L with the patient taking the lactulose.
# The patient has had three hospitalizations for hepatic encephalopathy and anemia, mostly resulting from poor compliance. The patient's last hospitalization was July 22nd. Four months later, the patient presented us with hepatic encephalopathy and bedsores.
# They were switched to 17 g MiraLax® (PEG 3350 powder) combined with 10 g of lactulose dissolved in water and given twice a day. The patient's ammonia level is now in the 70 to 75-range of micromoles/L and holding fairly steady on a maintenance dosage of this composition once per day.
# They have achieved clinical and therapeutic levels of ammonia levels, and is oriented to time and place, with no clinical signs of hepatic encephalopathy on physical examination.
# [1] = lactulose up to three to four times a day
compound,measurement,setting,value
OC[C@H]1O[C@@H](O[C@@H]2[C@@H](CO)OC(O)(CO)[C@H]2O)[C@H](O)[C@@H](O)[C@H]1O (mixture of isomers) [lactulose],bowel movements per day,[1],three to four to five
same,side effects with the drug,[1],"nausea, abdominal discomfort, and bloating sensation"
same,lowest level of ammonia,patient taking the lactulose,30 µmol/L
